Ends that are not written are not given here.
Key:
GluR1 = experiment: Immunocytochemical staining of surface and internalized GluR1 in cultured hippocampal neurons; type: cell-based; conditions: 50 μM DFB added 5 min before DHPG stimulation
Method: Immunocytochemical staining. Immunocytochemical staining of heterologous cells was performed as described (Xu et al., supra). For PMA-stimulation experiments, PMA (Sigma Cat #: P8139) at (150 nM) was added 90 minutes prior to live staining. Images were viewed and captured using Nikon E800 epifluorescence microscope fitted with a Princeton Instruments CCD camera. For live staining, neurons cultured on coverslips were incubated at 10° C. with the appropriate primary antibodies at the indicated dilutions in conditioned culture medium for 20 min. They were then washed with PBS and fixed with 4% paraformaldehyde/4% sucrose in PBS for 20 min at room temperature. Cells were permeablized with 0.2% Triton X-100 in PBS for 5 min and then blocked in 10% normal goat serum in PBS for 1 hr at room temperature. If intracellular proteins were of interest, coverslips were then incubated with antibody diluted in 10% normal goat serum for 1 hr at room temperature or overnight at 4° C. Coverslips were washed with PBS and incubated with secondary antibody conjugated to Alexa488 and Alexa555 (1:500 in 10% normal goat serum, Molecular Probes Eugene, Oreg.). Coverslips were mounted using the Prolong Antifade Kit (Molecular Probes, Eugene, Oreg.). For immunocytochemistry studies, mGluR1/5 were activated using the selective agonist (S)-DHPG (Tocris Cat.# 0805) with mGluR5 allosteric potentiator DFB (Tocris Cat.#1625). Neurons were incubated with DFB (50 μM) for 5 min and then DHPG (50 μM) for an additional 5 min in neuronal incubation medium and then transferred into the original incubation medium. […] Cells were incubated at 37° C. to allow endocytosis. At indicated time points, cells were incubated with N-terminal GluR1 mouse antibody (JH 4093; 0.2 μg/100 μl; kind gift from T. […] (to block endocytosis during staining). Cells were then processed for immunofluorescent staining as described above. An acid strip protocol was employed to measure endocytosed antibody labeled GluR1 (Snyder et al., 2001). Neurons were washed with progressively cooler NIM to slow basal endocytosis. Cells were then live labeled at 10° C. with GluR1 N-terminal antibody (0.2 μg/100 μL JH4094) antibody in NIM for 20 min. After washing unbound excess antibody, cells were incubated sequentially with DFB, DHPG, and original incubation medium at 37° C., as described above. After appropriate incubation times, cells were washed with 4° C. TBS. […] Neurons were then washed with 4° C. TBS followed by processing for immunofluorescent staining as described above. All neurons were viewed and captured using UltraVIEW spinning disk confocal microscope (PerkinElmer Life Sciences, Wellesley, Mass., USA) with a Nikon Eclipse TE 200 microscope and a 63× objective (Nikon, Melville, N.Y.). Images were acquired and saved as Tiff files with a dynamic range of 65536 grey levels (16-bit binary). Image analysis was performed using Metamorph imaging software (Universal Imaging, Downingtown, Pa.). For quantification of the punctate structures (e.g. GluR1), images were thresholded by grey value to differentiate single puncta. Segments of dendrites were selected and number of puncta was calculated per […] of length dendrite. Figures show ratios of calculated mean densities (number of puncta per unit length) from treated/control. Error bars were calculated using SEM and Gaussian error propagation. n=number of measured dendrites. Significance was determined by paired Student's T-test.

[1] = system: cultured cerebellar Purkinje cells; experiment: Basal electrophysiological properties and Ca2+ imaging in cultured cerebellar Purkinje cells; type: cell-based, mouse; conditions: TAPI-2 10 μM; GM6001 1 μM; GM6001 control 1 μM; mean ± SEM
Method: (§1) Recording and Ca^2+ imaging in cerebellar cultures. Cultures of embryonic mouse cerebellum were prepared as previously described and recordings were performed according to our previously published method (Leitges et al., Neuron 44:585-94, 2004). […]. Test pulses were delivered using negative current pulses (300-700 nA, 30-80 msec duration). LTD-inducing pairing stimuli consisted of six, 3-s-long depolarizations to 0 mV, each delivered together with a test pulse of glutamate.
(§2) Membrane currents were recorded with an Axopatch 200A amplifier, and digitized at 10 kHz for exogenous glutamate responses and 20 kHz for mEPSCs. Signals were lowpass filtered at 5 kHz (1 kHz for mEPSCs) and acquired using Axograph X software (Axograph Scientific, Sydney, Australia). Recordings in which Rinput or Rseries varied by more than 10% were excluded from the analysis. For analysis of mEPSCs, Axograph X mini analysis software was used. This detected events based on closeness of fit of the mEPSC to a sliding template. Events smaller than − ? 4 pA were discarded. A separate template was created for each recording by averaging 30 of its most unambiguous mEPSCs as selected by eye.
Bis-Fura-2 ratio imaging of intracellular free Ca^2+ in the dendritic shafts of cultured Purkinje cells was accomplished by measuring the background corrected fluorescence ratio at 340 and 380 nm excitation using a cooled CCD camera system. In these experiments, EGTA was removed from the internal saline and replaced with 100 μM bis-Fura-2.

[2] = system: Purkinje cells cultured from embryonic mouse cerebellum; experiment: LTD of glutamate-evoked inward current in cultured Purkinje cells (glutamate test pulses paired with depolarizing steps); type: cell-based; conditions: t=40 min; TAPI-2 10 μM, GM6001 1 μM, GM6001 control compound 1 μM; n=7
Method: as §1, §2
Other studies have shown that LTD in Purkinje cells cultured from embryonic mouse cerebellum requires activation of mGluR1, and is expressed postsynaptically as a reduction in surface AMPA receptors (Chung et al., Science 300:1751-5, 2003; Leitges et al., Neuron 44:585-94, 2004; Linden, PNAS 98:14066-71, 2001; Matsuda et al., EMBO J. 19:2765-74, 2000; Steinberg et al., Neuron 49:845-60, 2006; Wang and Linden, Neuron 25:635-47, 2000). Here, LTD was examined using a purely postsynaptic model in which iontophoretic test pulses of glutamate are applied to voltage-clamped Purkinje cells in culture. Following a baseline recording period, LTD was induced by pairing six 3 sec long depolarizing steps to 0 mV with six glutamate test pulses. When test pulses were resumed after pairing, LTD of the glutamate-evoked inward current was evident (52±9.0% of baseline at t=40 min, n=7 cells, FIG. 6A). […]

[3] = system: NPR cleavage at Site A (TACE); experiment: NPR cleavage assay in transfected HEK293T cells; type: cell-based, rat; conditions: TAPI-2 50 μM; GM6001 25 μM
Method: Cleavage Assay HEK293T cells were plated in OptiMEM (Invitrogen, Carlsbad, Calif.) containing 5% FBS onto 6-well dishes at a density of 4×10^5 cells/mL (2 mL/well) 1 day before transfection. Cells were transfected with NPR in pRK5 using LipofectAMINE 2000 (Invitrogen, Carlsbad Calif.). After 24 hr the medium was replaced with serum-free OptiMEM. […] Samples from each well were obtained at specific time points, immediately placed on ice, centrifuged at 15,000 g to remove cell debris, and then treated with 2% β-mercaptoethanol containing loading buffer. At the end of the time course, the cells were lysed with RIPA buffer, centrifuged to remove cell debris, and treated with 2% β-mercaptoethanol in loading buffer. Samples (20 μL of medium or lysate diluted to 1/5) were run on SDS-PAGE gels and analyzed by Western blotting.

Narp = target: T1, Narp (Rattus norvegicus, UniProt P97738); experiment: In vitro binding (GST pull down) with myc-Narp
T1 construct: GST-tagged GluR1-12mer (GST-G1-12mer) and myc-tagged full length Narp; made in house; host or cells: 293T cells (myc-Narp, cleared lysate); E. coli (GST fusions, pGEX-4T-2)
T1 sequence (P97738 15-432): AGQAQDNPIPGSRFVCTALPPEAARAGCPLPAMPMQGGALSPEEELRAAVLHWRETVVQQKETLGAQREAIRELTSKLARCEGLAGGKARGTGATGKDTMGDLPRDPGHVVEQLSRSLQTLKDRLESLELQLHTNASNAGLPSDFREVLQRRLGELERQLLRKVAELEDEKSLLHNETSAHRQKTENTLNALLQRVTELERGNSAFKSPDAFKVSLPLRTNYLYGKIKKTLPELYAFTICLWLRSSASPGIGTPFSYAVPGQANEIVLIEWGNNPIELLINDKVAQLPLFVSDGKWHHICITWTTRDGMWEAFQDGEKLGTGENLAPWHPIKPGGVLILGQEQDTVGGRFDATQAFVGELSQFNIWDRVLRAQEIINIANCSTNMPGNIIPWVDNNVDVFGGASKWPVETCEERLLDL
Method: In Vitro Binding. Polynucleotides encoding NAR fragments were subcloned into pGEX-4T-2 vector (Amersham) in the EcoRI and SalI sites. The constructs were confirmed by restriction enzyme digestion, DNA sequencing and fusion protein expression. GST-fusion proteins were purified by bacterial inoculation of one clone containing GST-fusion protein plasmid into 5 mL of LB liquid medium and cultured at 37 C overnight. Cultured bacteria was transferred into 400 mL of LB liquid medium and cultured at 30 C for 3 hours. Protein expression was induced with 5 mM IPTG and the bacteria were cultured at 30 C for another 2 hours. A bacterial pellet was collected and resuspended in 10 mL of lysis buffer (pH 7.4 PBS containing 10 mM sodium pyrophosphate, 1 mM sodium orthovanadate, 1% triton and 0.1% PMSF), sonicated for 10 seconds, 3 times at 4 C. Debris was pelleted with centrifugation at 12,000 rpm at 4 C for 10 minutes. The supernatant was incubated with Glutathione Sepharose 4B beads (Pharmacia) with agitation at 4 C for 2 hours. Beads were washed with lysis buffer+1% triton+0.1% PMSF twice; lysis buffer+PMSF twice; PBS+0.5M NaCl once; and PBS twice. The fusion protein bound beads were then used in the in vitro binding assay. Purified Narp protein preparation was accomplished by splitting 293T cells is into 100 mm culture dishes at the density of 5×10^5 cells/mL. […]

Molecule | DHPG-evoked (dendritic Ca2+ transient) [1] | Depol-evoked (dendritic Ca2+ transient) [1] | Resting Ca2+ [1] | mEPSC 10-90% rise [1] | mEPSC 50% decay [1] | mEPSC amp [1] | glutamate-evoked inward current after LTD induction [2] | further results
Fc1cccc(C=NN=Cc2cccc(F)c2)c1 [DFB, 3,3′-difluorobenzaldazine] |  |  |  |  |  |  |  | consistency of the DHPG-evoked response (GluR1): increased the consistency of the DHPG-evoked response
CNC(=O)C(Cc1c[nH]c2ccccc12)NC(=O)C(CC(C)C)NC(=O)OC(C)(C)C (stereo not drawn) [GM6001 control compound] | 277 ± 42 nM | 526 ± 55 nM | 100 ± 25 nM | 1.6 ± 0.3 msec | 7.6 ± 0.7 ms | 26 ± 6 pA | 48±9.8 % of baseline | 
CNC(=O)[C@H](Cc1c[nH]c2ccccc12)NC(=O)[C@@H](CC(=O)NO)CC(C)C [GM6001] | 268 ± 39 nM | 557 ± 65 nM | 123 ± 27 nM | 2.0 ± 0.3 msec | 8.0 ± 0.6 ms | 25 ± 6 pA | 106±8.4 % of baseline | PMA-stimulated cleavage at Site A / secretion of LFC-NPR into the medium [3]: inhibited
G1-12mer peptide: synthetic 12 amino acid GluR1 NAR1 sequence, Narp binding motif LRRQRIDISRRG (SEQ ID NO:24) (listed as Homo sapiens) |  |  |  |  |  |  |  | in vitro binding between GST-G1-NarI and Narp (Narp; synthetic peptide added): blocked
GST-G1-12mer: bacteria GST-tagged GluR1-12mer (LRRQRIDISRRG; also: GST tag, end not given here) |  |  |  |  |  |  |  | pull down of myc-tagged full length Narp (Narp; GST fusion proteins): pulls down Narp

From patent publication US20090123940A1, “MOLECULES INVOLVED IN SYNAPTOGENESIS AND USES THEREFOR” (THE JOHNS HOPKINS UNIVERSITY, priority 2007, published 2009)
